According to patent US20240254087A1, “SELECTIVE, PARTIAL, AND ARRESTIN-BIASED 5-HT2A AGONISTS WITH UTILITY IN VARIOUS DISORDERS” (Saint Joseph's University, priority 2021, published 2024):
Where two headings read alike, the source gives them in different places.

Legend:
5-HT2A [1] = biological target: T1, 5-HT2A (Homo sapiens, UniProt P28223); assay: Ca2+ flux assay, 5-HT2A; format: cell-based; parameters: expressed in transfected cells; conditions: for Emax: read-out: 5-HT2A Emax % 5-HT, Ca2+ flux
5-HT2B [2] = biological target: T2, 5-HT2B (Homo sapiens, UniProt P41595); assay: Competitive radioligand binding (NIMH PDSP); parameters: expressed in transfected cells
5-HT2C [3] = biological target: T3, 5-HT2C (Homo sapiens, UniProt P28335); assay: Competitive radioligand binding (NIMH PDSP); parameters: expressed in transfected cells
T3 sequence (P28335 33-458): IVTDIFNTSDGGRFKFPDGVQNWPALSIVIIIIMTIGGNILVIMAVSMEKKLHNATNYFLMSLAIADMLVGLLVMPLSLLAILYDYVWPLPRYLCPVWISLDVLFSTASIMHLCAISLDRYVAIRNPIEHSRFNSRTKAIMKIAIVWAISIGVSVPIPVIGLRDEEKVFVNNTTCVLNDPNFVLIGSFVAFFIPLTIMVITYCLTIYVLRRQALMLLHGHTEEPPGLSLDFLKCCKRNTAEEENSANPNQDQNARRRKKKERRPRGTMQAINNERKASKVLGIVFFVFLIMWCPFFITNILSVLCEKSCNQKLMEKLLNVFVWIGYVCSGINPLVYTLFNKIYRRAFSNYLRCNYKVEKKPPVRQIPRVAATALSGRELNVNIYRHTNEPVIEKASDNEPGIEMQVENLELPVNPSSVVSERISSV

5-HT2C [4] = biological target: T3, 5-HT2C; assay: Ca2+ flux assay, 5-HT2C; format: cell-based; parameters: expressed in transfected cells; conditions: for Emax: read-out: 5-HT2C Emax % 5-HT
5-HT2B [5] = biological target: T2, 5-HT2B; assay: Ca2+ flux assay, 5-HT2B; format: cell-based; parameters: expressed in transfected cells; conditions: Ca2+ flux; for Emax: read-out: 5-HT2B Emax % 5-HT
5-HT1e = 5-HT1e (Homo sapiens, UniProt P28566); assay: Competitive radioligand binding (NIMH PDSP)
5-HT3 = biological target: T4, 5-HT3 (Homo sapiens, UniProt P46098); assay: Competitive radioligand binding (NIMH PDSP)
T4 sequence (P46098 24-478): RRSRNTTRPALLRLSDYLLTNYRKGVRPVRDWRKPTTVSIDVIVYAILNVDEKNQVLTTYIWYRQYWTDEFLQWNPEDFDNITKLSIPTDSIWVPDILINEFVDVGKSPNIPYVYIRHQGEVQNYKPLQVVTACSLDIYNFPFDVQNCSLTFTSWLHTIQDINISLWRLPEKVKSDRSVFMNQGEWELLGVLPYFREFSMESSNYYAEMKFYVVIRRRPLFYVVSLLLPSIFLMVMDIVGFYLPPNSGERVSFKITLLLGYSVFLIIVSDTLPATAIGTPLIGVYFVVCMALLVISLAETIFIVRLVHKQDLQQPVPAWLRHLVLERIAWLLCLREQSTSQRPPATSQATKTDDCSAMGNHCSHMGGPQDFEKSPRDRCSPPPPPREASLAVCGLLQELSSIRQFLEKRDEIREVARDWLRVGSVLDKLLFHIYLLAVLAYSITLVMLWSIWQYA
Outline: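 Compounds dissolved in DMSO were screened at 10,000 nM for displacement of the radioligand from each receptor. Those advanced to Ki determination were tested in triplicate on separate plates alongside a known ligand as positive control. 5-HT2A binding used [3H]-ketanserin with human receptor-expressing membranes.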

5-HT1D = 5-HT1D (Homo sapiens, UniProt P28221); assay: Competitive radioligand binding (NIMH PDSP)
5-HT2A [6] = biological target: T1, 5-HT2A; assay: Competitive radioligand binding (NIMH PDSP)
5-HT1B = 5-HT1B (Homo sapiens, UniProt P28222); assay: Competitive radioligand binding (NIMH PDSP)
5-HT1A = biological target: T5, 5-HT1A (Homo sapiens, UniProt P08908); assay: Competitive radioligand binding (NIMH PDSP)
T5 sequence (P08908 1-422): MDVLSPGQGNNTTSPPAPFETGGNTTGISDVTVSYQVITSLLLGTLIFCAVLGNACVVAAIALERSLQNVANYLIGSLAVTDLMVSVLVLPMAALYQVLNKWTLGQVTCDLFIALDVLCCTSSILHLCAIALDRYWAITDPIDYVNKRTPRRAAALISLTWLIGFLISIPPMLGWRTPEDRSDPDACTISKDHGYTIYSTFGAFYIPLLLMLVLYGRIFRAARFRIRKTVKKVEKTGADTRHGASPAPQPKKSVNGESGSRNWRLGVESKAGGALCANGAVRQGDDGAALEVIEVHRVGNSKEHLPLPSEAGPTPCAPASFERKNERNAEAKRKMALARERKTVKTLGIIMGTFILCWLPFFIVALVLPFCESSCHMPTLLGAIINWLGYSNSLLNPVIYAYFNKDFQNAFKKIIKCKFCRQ

5-HT2A [7] = assay: Ca2+ flux assay, 5-HT2A; format: cell-based, human; conditions: Gq/11 Ca2+ mobilization; higher number = skewed towards 5-HT2A

T1 sequence (P28223 whole entry): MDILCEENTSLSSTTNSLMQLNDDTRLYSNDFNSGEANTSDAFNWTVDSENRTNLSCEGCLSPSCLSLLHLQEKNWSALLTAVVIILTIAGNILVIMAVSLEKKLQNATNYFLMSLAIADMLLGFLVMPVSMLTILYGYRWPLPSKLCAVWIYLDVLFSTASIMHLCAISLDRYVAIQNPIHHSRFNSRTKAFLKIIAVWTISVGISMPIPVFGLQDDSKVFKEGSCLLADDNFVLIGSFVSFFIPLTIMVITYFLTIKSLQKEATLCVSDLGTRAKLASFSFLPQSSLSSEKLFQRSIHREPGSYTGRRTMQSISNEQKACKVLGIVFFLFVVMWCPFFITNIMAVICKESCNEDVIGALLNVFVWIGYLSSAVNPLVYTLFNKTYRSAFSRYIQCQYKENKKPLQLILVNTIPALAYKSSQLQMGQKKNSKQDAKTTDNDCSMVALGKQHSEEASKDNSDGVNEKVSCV
T2 sequence (P41595 whole entry): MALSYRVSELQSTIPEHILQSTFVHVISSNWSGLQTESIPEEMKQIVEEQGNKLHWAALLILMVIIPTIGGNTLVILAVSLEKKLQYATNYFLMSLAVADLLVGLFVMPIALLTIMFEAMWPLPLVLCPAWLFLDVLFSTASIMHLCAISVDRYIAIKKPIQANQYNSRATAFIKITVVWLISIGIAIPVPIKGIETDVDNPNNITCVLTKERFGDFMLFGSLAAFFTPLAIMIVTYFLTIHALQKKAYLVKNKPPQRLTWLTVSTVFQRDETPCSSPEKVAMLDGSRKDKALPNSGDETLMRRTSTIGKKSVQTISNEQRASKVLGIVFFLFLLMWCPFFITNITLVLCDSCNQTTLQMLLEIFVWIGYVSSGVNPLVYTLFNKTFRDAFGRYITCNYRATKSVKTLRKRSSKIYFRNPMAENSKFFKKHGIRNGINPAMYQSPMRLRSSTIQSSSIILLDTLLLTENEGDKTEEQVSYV
Chain of 5-HT1B (P28222 whole entry, species assumed): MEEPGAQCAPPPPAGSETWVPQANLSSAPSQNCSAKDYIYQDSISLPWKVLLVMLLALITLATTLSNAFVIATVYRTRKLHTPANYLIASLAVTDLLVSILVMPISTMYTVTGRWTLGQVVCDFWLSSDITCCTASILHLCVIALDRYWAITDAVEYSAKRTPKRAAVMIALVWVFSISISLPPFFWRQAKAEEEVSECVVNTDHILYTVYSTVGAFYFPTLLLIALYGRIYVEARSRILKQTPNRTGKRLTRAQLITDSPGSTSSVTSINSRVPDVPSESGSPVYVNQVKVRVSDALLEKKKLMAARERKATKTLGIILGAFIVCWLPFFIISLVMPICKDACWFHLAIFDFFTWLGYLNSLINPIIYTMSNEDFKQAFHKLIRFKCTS
Chain of 5-HT1D (P28221 whole entry, species assumed): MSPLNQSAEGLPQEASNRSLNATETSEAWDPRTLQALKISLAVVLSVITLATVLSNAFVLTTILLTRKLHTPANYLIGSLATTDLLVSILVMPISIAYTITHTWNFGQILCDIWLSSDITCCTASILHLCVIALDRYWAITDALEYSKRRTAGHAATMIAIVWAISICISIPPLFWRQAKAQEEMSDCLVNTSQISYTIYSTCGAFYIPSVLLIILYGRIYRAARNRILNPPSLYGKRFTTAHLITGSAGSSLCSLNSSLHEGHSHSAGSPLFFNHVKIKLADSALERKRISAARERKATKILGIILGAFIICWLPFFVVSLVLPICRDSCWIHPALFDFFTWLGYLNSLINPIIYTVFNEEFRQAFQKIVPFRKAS
Chain of 5-HT1e (P28566 whole entry, species assumed): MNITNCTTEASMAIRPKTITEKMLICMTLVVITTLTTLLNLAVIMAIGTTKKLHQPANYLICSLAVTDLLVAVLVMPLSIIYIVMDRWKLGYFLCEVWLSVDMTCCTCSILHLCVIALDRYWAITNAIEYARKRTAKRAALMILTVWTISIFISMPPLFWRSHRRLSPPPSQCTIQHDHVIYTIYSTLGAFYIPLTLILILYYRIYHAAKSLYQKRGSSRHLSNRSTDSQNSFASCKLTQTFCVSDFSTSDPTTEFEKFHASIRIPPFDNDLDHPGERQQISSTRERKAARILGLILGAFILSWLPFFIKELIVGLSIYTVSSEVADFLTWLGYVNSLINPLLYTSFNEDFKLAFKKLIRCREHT

| Structure (SMILES) | 5-HT2B EC50, nM (5-HT2B [5]) | 5-HT2A/5-HT2c Selectivity Factor ΔLog(Emax/EC50) (5-HT2A [7]) | Emax (5-HT2A [1]) | Ki (5-HT2B [2]) | Ki (5-HT2C [3]) | Emax (5-HT2C [4]) | Emax (5-HT2B [5]) | Ki (5-HT1e) | Ki (5-HT3) | Ki (5-HT1D) | Ki (5-HT2A [6]) | Ki (5-HT1B) | Ki (5-HT1A) | other results |
| --- | --- | --- | --- | --- | --- | --- | --- | --- | --- | --- | --- | --- | --- | --- |
| COc1cc([N+](=O)[O-])c(OC)cc1CCNCc1ccccc1OC(F)(F)F [25N-NBOCF3 (12)] | No activity | 6.1 | – | – | – | – | – | – | – | – | – | – | – | 5-HT2A (pEC50 ± SEM) (5-HT2A [1]; Ca2+ flux): (8.09 ± 0.09); 5-HT2A Emax % 5-HT (5-HT2A [1]; Ca2+ flux): 75 ± 2 % 5-HT; EC50 (5-HT2A [1]; Ca2+ flux, read-out: 5-HT2A EC50): 8.09 nM; 5-HT2B pKi affinity (Ki ± SEM) (5-HT2B [2]): 7.86; 5-HT2C pKi affinity (Ki ± SEM) (5-HT2C [3]): 7.33; 5-HT2C (pEC50 ± SEM) (5-HT2C [4]): (7.23 ± 0.04); 5-HT2C Emax % 5-HT (5-HT2C [4]): 89 ± 1 % 5-HT; EC50 (5-HT2C [4]; read-out: 5-HT2C EC50): 58.3 nM; 5-HT2B Emax % 5-HT (5-HT2B [5]): <10 % 5-HT; 5-HT1e pKi affinity (Ki ± SEM) (5-HT1e): <5; 5-HT3 pKi affinity (Ki ± SEM) (5-HT3): <5; 5-HT1D pKi affinity (Ki ± SEM) (5-HT1D): <5; 5-HT2A pKi affinity (Ki ± SEM) (5-HT2A [6]): 7.84; 5-HT1B pKi affinity (Ki ± SEM) (5-HT1B): <5; 5-HT1A pKi affinity (Ki ± SEM) (5-HT1A): 5.95 |
| COc1cc([N+](=O)[O-])c(OC)cc1CCNCc1ccccc1OC [25N-NBOMe (4), [2-(2,5-dimethoxy-4-nitrophenyl)ethyl] [(2-methoxyphenyl)methyl]amine] | No activity | 2.4 | 94% | 4.47 nM | 6.92 nM | 102 ± 1% | < 10% | > 10000 nM | > 10000 nM | 5620 nM | 0.55 nM | > 10000 nM | 1860 nM | EC50 (5-HT2A [1]; 5-HT2A (pEC50 ± SEM), Ca2+ flux): 0.316 nM; EC50 (5-HT2C [4]; 5-HT2C (pEC50 ± SEM)): 0.851 nM; EC50 (5-HT2C [4]; 5-HT2C EC50, nM): 0.84 nM |
| COc1cc([N+](=O)[O-])c(OC)cc1CCNCc1ccccc1-c1ccccc1 [25N-NBPh (17), ({[1,1′-biphenyl]-2-yl}methyl)[2-(2,5-dimethoxy-4-nitrophenyl)ethyl]amine] | No activity | 5-HT2A Selective | < 10% | 1410 nM | 372 nM | < 10% | < 10% | > 10000 nM | > 10000 nM | 1200 nM | 0.331 nM | > 10000 nM | 1780 nM | 5-HT2A EC50, nM (5-HT2A [1]; Ca2+ flux): No activity; 5-HT2C EC50, nM (5-HT2C [4]): No activity |
